One data set addresses T1, Histone deacetylase 11 (Homo sapiens, UniProt Q96DB2).
T1 sequence (Q96DB2 whole entry): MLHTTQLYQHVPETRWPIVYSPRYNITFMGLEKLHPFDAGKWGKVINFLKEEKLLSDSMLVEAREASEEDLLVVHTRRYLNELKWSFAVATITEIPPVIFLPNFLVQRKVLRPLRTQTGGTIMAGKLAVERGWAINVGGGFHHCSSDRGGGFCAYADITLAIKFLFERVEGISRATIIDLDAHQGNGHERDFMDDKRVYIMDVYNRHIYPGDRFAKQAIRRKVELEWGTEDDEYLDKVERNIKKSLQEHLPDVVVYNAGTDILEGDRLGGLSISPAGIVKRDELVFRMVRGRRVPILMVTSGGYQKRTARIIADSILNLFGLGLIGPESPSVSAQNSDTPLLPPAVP
As to the kind of experiment: Inhibition of recombinant human full length HDAC11 expressed in baculovirus infected Sf9 cells measured after 60 mins by FRET assay.

Another data set has as its target Histone deacetylase 1 (Homo sapiens, UniProt Q13547). As to the kind of experiment: Inhibition of recombinant human C-terminal FLAG/His-tagged HDAC1 (1 to 482 residues) expressed in Sf9 insect cells using fluorometric substrate measured after 60 mins by FRET assay.
Data set [1] can be described thus: Selectivity index, ratio of GI50 for cytotoxicity against human WI-38 cells to GI50 for antiproliferative activity against triple-negative human MDA-MB-231 cells. The settings on record: WI-38 cells versus MDA-MB-231 cells, read-out: RatioGI50. Type of data set: toxicity, cell-based.
Data set [2] concerns the target T2, Protein deacetylase HDAC6 (Homo sapiens, UniProt Q9UBN7).
T2 sequence (Q9UBN7 whole entry): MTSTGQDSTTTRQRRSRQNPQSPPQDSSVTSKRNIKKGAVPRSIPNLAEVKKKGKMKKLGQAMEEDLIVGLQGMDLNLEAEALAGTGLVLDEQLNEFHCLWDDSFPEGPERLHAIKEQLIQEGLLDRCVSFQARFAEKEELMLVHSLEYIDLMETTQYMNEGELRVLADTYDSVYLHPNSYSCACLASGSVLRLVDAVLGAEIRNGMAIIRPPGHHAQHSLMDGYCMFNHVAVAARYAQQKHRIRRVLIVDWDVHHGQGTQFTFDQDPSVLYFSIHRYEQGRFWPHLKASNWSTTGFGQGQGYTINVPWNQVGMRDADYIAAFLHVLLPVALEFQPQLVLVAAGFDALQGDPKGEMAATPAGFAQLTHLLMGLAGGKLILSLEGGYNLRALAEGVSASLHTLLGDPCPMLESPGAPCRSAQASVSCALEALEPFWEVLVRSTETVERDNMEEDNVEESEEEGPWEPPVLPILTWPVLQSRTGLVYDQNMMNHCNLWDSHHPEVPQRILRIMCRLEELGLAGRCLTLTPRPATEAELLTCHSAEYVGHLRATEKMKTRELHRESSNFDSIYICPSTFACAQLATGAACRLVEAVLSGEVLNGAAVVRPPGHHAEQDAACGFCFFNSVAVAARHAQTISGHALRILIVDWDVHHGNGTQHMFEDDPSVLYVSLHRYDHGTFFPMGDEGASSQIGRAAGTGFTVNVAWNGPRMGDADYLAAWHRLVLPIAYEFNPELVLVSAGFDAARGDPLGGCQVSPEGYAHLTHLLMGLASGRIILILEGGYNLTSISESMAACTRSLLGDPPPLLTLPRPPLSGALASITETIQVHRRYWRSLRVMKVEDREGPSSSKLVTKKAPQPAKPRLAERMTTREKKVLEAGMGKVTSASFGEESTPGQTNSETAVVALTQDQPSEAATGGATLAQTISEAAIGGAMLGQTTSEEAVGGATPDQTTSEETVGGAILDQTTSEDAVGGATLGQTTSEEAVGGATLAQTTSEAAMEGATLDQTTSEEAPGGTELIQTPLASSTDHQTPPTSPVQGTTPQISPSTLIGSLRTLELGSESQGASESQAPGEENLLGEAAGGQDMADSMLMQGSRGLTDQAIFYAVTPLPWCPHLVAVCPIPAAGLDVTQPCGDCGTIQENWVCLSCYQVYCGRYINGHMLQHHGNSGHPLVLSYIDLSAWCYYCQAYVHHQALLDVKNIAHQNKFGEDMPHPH
Briefly: Inhibition of recombinant human full length N-terminal GST-tagged HDAC6 expressed in Sf9 cells using fluorogenic substrate measured after 60 mins by FRET assay.

Structures are written as SMILES.

In general, IC50 refers to the concentration that inhibits the measured activity by half.

Sequence of Histone deacetylase 1 (Q13547 whole entry, the tested form may be a part): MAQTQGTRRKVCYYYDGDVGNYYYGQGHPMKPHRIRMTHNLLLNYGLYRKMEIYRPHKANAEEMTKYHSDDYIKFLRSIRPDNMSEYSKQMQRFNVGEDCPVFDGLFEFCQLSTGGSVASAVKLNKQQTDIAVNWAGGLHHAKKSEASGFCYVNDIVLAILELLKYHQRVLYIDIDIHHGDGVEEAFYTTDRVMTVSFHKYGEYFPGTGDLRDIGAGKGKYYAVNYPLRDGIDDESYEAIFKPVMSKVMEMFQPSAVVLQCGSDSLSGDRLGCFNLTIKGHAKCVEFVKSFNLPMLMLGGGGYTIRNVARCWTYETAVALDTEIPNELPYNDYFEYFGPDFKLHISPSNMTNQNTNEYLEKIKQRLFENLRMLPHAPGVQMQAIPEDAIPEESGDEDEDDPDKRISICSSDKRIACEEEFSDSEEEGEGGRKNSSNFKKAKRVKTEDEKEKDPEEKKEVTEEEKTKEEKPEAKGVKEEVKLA

For `C/C=C1\NC(=O)c2csc(n2)CNC(=O)C[C@@H](/C=C/CCSSCCCCCCC)OC(=O)[C@H](CCCCN)NC1=O`, the figures for the IC50 (on Histone deacetylase 11; on Histone deacetylase 1; in data set [2]) were above 10 µM, 0.0058 µM and above 10 µM, respectively. For the same compound, the selectivity ratio in data set [1] came to 194.

(Values after ChEMBL document CHEMBL5030507, “Structure-Based Design of a Selective Class I Histone Deacetylase (HDAC) Near-Infrared (NIR) Probe for Epigenetic Regulation Detection in Triple-Negative Breast Cancer (TNBC)” (J Med Chem, 2021).)
